Source: patent US20260240876A1, “TREATMENT OF SLEEP APNEA WITH CBD” (Harmony Biosciences Management, Inc., priority 2021, published 2026)

System: child and adolescent patients with DEEs
Experiment: BELIEVE: Sleep Disturbance Scale for Children (SDSC)
Format: in vivo, human
Settings: Week 26, negative = improvement, vs revised Baseline mean of completers
Description: This was a sequential, multi-stage, open-label, multi-national, multiple-center, multiple-dose study to assess the long-term safety, tolerability, and efficacy of ZYN002 (transdermal CBD gel) in child and adolescent epilepsy patients from 3 to 18 years of age having seizures associated with developmental and epileptic encephalopathies (DEE) according to the International League Against Epilepsy (ILEA) classification (Scheffer et al. 2017). The study was conducted to evaluate efficacy of ZYN002 in DEE patients with ASD. The objective of the study also included evaluating the effects of ZYN002 transdermal CBD gel on QoL, sleep, and caregiver qualitative assessment in child and adolescent patients with DEEs.
• Change from baseline to the end of Period A in the SDSC

With `C=C(C)C1CCC(C)=CC1c1c(O)cc(CCCCC)cc1O` (stereo not shown) [CBD, 2-[3-methyl-6-(1-methylethenyl)-2-cyclohexen-1-yl]-5-pentyl-1,3-benzenediol] the “SDSC Sleep Breathing Disorders (SBD), Change from Baseline” value (All Patients (DEE)) was “no significant change”, the “SDSC Sleep Breathing Disorders (SBD), Change from Baseline” value (DEE Patients >70 Total Score) was “no significant change” and the “SDSC Sleep Breathing Disorders (SBD), Change from Baseline” value (DEE-ASD Patients >70 Total Score) was −6.7. For the same compound, the “SDSC Sleep Breathing Disorders (SBD), Change from Baseline” value (DEE-ASD Patients) was −3.9.
